# Measurements from patent US9730914B2, “3,5-diaminopyrazole kinase inhibitors” (Axikin Pharmaceuticals, Inc., priority 2014, dated 2017).
# Assays:
# [1] = target: T1, kinase domain protein of RC kinase (RCK) (Homo sapiens, UniProt Q56UN5); test: Kinase competition binding assay (Kd, qPCR readout), RC kinase; settings: Kd class, read-out: RCK Activity Level
# T1 construct: made in house; host or cells: E. coli BL21-derived host (T7 phage) or HEK-293
# T1 sequence (Q56UN5 1061-1324 limits assumed): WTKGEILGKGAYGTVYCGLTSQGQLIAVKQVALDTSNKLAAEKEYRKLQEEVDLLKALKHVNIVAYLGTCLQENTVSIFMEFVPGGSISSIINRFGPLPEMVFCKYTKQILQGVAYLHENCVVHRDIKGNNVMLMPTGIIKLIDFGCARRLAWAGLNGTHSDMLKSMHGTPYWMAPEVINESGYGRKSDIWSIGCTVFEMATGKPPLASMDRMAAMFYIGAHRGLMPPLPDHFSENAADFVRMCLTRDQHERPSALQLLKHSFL
# Procedure: (§1) For most assays, kinase-tagged T7 phage strains were prepared in an E. coli host derived from the BL21 strain. E. coli were grown to log-phase and infected with T7 phage and incubated with shaking at 32° C. until lysis. The lysates were centrifuged and filtered to remove cell debris. The remaining kinases were produced in HEK-293 cells and subsequently tagged with DNA for quantitative PCR (qPCR) detection.
# (§2) Streptavidin-coated magnetic beads were treated with biotinylated small molecule ligands for 30 minutes at room temperature to generate affinity resins for kinase assays. The liganded beads were blocked with excess biotin and washed with blocking buffer (SeaBlock (Pierce), 1% BSA, 0.05% Tween 20, 1 mM DTT) to remove unbound ligand and to reduce nonspecific binding. Binding reactions were assembled by combining kinases, liganded affinity beads, and test compounds in 1× binding buffer (20% SeaBlock, 0.17×PBS, 0.05% Tween 20, 6 mM DTT). All reactions were performed in polystyrene 96-well plates in a final volume of 0.135 mL. The assay plates were incubated at room temperature with shaking for 1 hour and the affinity beads were washed with wash buffer (1×PBS, 0.05% Tween 20). The beads were then re-suspended in elution buffer (1×PBS, 0.05% Tween 20, 0.5 μM non-biotinylated affinity ligand) and incubated at room temperature with shaking for 30 minutes. The kinase concentration in the eluates was measured by qPCR.
# (§3) An 11-point 3-fold serial dilution of each test compound was prepared in 100% DMSO at 100× final test concentration and subsequently diluted to 1× in the assay (final DMSO concentration=1%). Most Kd values were determined using a compound top concentration=30,000 nM. If the initial Kd determined was <0.5 nM, (the lowest concentration tested), the measurement was repeated with a serial dilution starting at a lower top concentration. A more detailed description of this assay may be found in Fabian, M. A. et al. Nat. Biotechnol. 2005, 23, 329-336, which is incorporated herein in its entirety.
# (§4) The biological results of inhibition of the kinase domain protein of RC kinase (RCK) and JAK2 and JAK3 are summarized in Tables 2 and 3, wherein A represents a Kd of <50 nM; B represents 50 nM<Kd<100 nM; C represents 100 nM<Kd<1000 nM; and D represents a Kd>1000 nM.
# JAK2 = target: T2, JAK2 (Homo sapiens, UniProt O60674); test: Kinase competition binding assay (Kd, qPCR readout), JAK2; settings: for Kd: Kd class, JAK2, read-out: JAK2 Activity Level; for RCK:JAK2 selectivity ratio: ratio Kd (JAK2): Kd(RCK)
# T2 construct: made in house; host or cells: E. coli BL21-derived host (T7 phage) or HEK-293
# Procedure: as §1, §2, §3, §4
# Additionally, RCK:JAK2 selectivity, as measured by the ratio Kd (JAK2): Kd(RCK) is represented as follows: A represents Kd (JAK2): Kd (RCK)>100; B represents 10<Kd(JAK2): Kd (RCK)<100; C represents 1<Kd (JAK2): Kd (RCK)<10; and D represents Kd(JAK2): Kd (RCK)<1.
# JAK3 = target: T3, JAK3 (Homo sapiens, UniProt P52333); test: Kinase competition binding assay (Kd, qPCR readout), JAK3; settings: for Kd: Kd class, JAK3, read-out: JAK3 Activity Level; for RCK:JAK3 selectivity ratio: ratio Kd (JAK3): Kd (RCK)
# T3 construct: made in house; host or cells: E. coli BL21-derived host (T7 phage) or HEK-293
# Procedure: as §1, §2, §3, §4
# Similarly, RCK:JAK3 selectivity, as measured by the ratio Kd (JAK3): Kd (RCK) is represented as follows: A represents Kd (JAK3): Kd (RCK)>100; B represents 10<Kd (JAK3): Kd (RCK)<100; C represents 1<Kd (JAK3): Kd (RCK)<10; and D represents Kd (JAK3): Kd(RCK)<1.
# T2 sequence (O60674 840-1132 limits assumed): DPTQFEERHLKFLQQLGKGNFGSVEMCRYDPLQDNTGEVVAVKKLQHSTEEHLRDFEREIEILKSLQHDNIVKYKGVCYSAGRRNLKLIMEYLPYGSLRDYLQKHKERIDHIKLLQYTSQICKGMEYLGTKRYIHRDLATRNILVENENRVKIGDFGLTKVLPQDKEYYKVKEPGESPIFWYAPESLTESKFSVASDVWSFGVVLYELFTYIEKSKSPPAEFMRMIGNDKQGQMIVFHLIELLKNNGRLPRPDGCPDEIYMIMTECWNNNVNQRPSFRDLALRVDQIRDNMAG
# T3 sequence (P52333 811-1124 limits assumed): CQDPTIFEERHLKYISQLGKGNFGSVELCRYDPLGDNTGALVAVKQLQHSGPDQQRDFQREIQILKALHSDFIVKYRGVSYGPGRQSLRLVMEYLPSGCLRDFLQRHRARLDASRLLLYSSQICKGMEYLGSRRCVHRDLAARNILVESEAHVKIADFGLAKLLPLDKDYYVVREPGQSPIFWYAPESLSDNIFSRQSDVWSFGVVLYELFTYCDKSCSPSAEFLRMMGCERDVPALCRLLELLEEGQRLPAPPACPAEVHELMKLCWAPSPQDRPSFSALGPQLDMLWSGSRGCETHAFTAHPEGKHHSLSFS
Kd [1],Kd (JAK2),Kd (JAK3),SMILES,RCK:JAK2 selectivity ratio (JAK2),RCK:JAK3 selectivity ratio (JAK3)
< 0.05 µM,,,Cc1cc(Nc2n[nH]c(NCc3ccc(O)cc3)c2C(N)=O)ccc1N1CCOCC1,,
< 0.05 µM,0.1 to 1 µM,0.1 to 1 µM,"Cc1cc(CNc2[nH]nc(Nc3ccc(N4CCN(C(C)C)CC4)cc3)c2C(N)=O)cc(C)c1O [Compound 1, 5-((4-hydroxy-3,5-dimethylbenzyl)amino)-3-((4-(4-isopropylpiperazin-1-yl)phenyl)amino)-1H-pyrazole-4-carboxamide]",A (A represents Kd (JAK2): Kd (RCK)>100),A (A represents Kd (JAK3): Kd (RCK)>100)
< 0.05 µM,0.1 to 1 µM,> 1 µM,"Cc1cc(CNc2[nH]nc(Nc3ccc(N4CCOCC4)c(Cl)c3)c2C(N)=O)cc(C)c1O [Compound 2, 3-((3-chloro-4-morpholinophenyl)amino)-5-((4-hydroxy-3,5-dimethylbenzyl)amino)-1H-pyrazole-4-carboxamide]",B (B represents 10<Kd(JAK2): Kd (RCK)<100),A (A represents Kd (JAK3): Kd (RCK)>100)
< 0.05 µM,0.1 to 1 µM,> 1 µM,"Cc1cc(CNc2[nH]nc(Nc3ccc(N4CCOCC4)cc3)c2C(N)=O)cc(C)c1O [Compound 3, 5-((4-hydroxy-3,5-dimethylbenzyl)amino)-3-((4-morpholinophenyl)amino)-1H-pyrazole-4-carboxamide]",B (B represents 10<Kd(JAK2): Kd (RCK)<100),A (A represents Kd (JAK3): Kd (RCK)>100)
0.1 to 1 µM,> 1 µM,> 1 µM,"Cc1cc(CNc2[nH]nc(Nc3ccc(N4C[C@@H](C)O[C@@H](C)C4)cc3)c2C(N)=O)cc(C)c1O [Compound 4, 3-((4-(2,6-dimethylmorpholino)phenyl)amino)-5-((4-hydroxy-3,5-dimethylbenzyl)amino)-1H-pyrazole-4-carboxamide]",B (B represents 10<Kd(JAK2): Kd (RCK)<100),B (B represents 10<Kd (JAK3): Kd (RCK)<100)
0.1 to 1 µM,> 1 µM,> 1 µM,"Cc1cc(CNc2[nH]nc(Nc3cnc(N4CCOCC4)c(Cl)c3)c2C(N)=O)cc(C)c1O [Compound 5, 3-((5-chloro-6-morpholinopyridin-3-yl)amino)-5-((4-hydroxy-3,5-dimethylbenzyl)amino)-1H-pyrazole-4-carboxamide]",B (B represents 10<Kd(JAK2): Kd (RCK)<100),B (B represents 10<Kd (JAK3): Kd (RCK)<100)
< 0.05 µM,> 1 µM,> 1 µM,"Cc1cc(CNc2[nH]nc(Nc3ccc(-n4cccc4)cc3)c2C(N)=O)cc(C)c1O [Compound 6, 3-((4-(1H-pyrrol-1-yl)phenyl)amino)-5-((4-hydroxy-3,5-dimethylbenzyl)amino)-1H-pyrazole-4-carboxamide]",A (A represents Kd (JAK2): Kd (RCK)>100),A (A represents Kd (JAK3): Kd (RCK)>100)
0.05 to 0.1 µM,0.1 to 1 µM,> 1 µM,"Cc1cc(CNc2[nH]nc(Nc3ccc(N4CCOCC4)nc3)c2C(N)=O)cc(C)c1O [Compound 7, 5-((4-hydroxy-3,5-dimethylbenzyl)amino)-3-((6-morpholinopyridin-3-yl)amino)-1H-pyrazole-4-carboxamide]",C (C represents 1<Kd (JAK2): Kd (RCK)<10),B (B represents 10<Kd (JAK3): Kd (RCK)<100)
0.05 to 0.1 µM,> 1 µM,> 1 µM,"Cc1cc(Nc2n[nH]c(NCc3cc(C)c(O)c(C)c3)c2C(N)=O)ccc1N1CCOCC1 [Compound 8, 5-((4-hydroxy-3,5-dimethylbenzyl)amino)-3-((3-methyl-4-morpholinophenyl)amino)-1H-pyrazole-4-carboxamide]",B (B represents 10<Kd(JAK2): Kd (RCK)<100),B (B represents 10<Kd (JAK3): Kd (RCK)<100)
0.05 to 0.1 µM,> 1 µM,> 1 µM,"Cc1cc(CNc2[nH]nc(Nc3ccc(-c4ccccn4)cc3)c2C(N)=O)cc(C)c1O [Compound 9, 5-((4-hydroxy-3,5-dimethylbenzyl)amino)-3-((4-(pyridin-2-yl)phenyl)amino)-1H-pyrazole-4-carboxamide]",B (B represents 10<Kd(JAK2): Kd (RCK)<100),A (A represents Kd (JAK3): Kd (RCK)>100)
0.05 to 0.1 µM,> 1 µM,> 1 µM,"Cc1cc(CNc2[nH]nc(Nc3ccc(N4CCN(C)CC4)cc3)c2C(N)=O)cc(C)c1O [Compound 10, 5-((4-hydroxy-3,5-dimethylbenzyl)amino)-3-((4-(4-methylpiperazin-1-yl)phenyl)amino)-1H-pyrazole-4-carboxamide]",B (B represents 10<Kd(JAK2): Kd (RCK)<100),A (A represents Kd (JAK3): Kd (RCK)>100)
0.05 to 0.1 µM,0.1 to 1 µM,> 1 µM,"Cc1cc(CNc2[nH]nc(Nc3ccc(N4CCOCC4)cn3)c2C(N)=O)cc(C)c1O [Compound 11, 5-((4-hydroxy-3,5-dimethylbenzyl)amino)-3-((5-morpholinopyridin-2-yl)amino)-1H-pyrazole-4-carboxamide]",C (C represents 1<Kd (JAK2): Kd (RCK)<10),B (B represents 10<Kd (JAK3): Kd (RCK)<100)
0.1 to 1 µM,> 1 µM,> 1 µM,"Cc1cc(Nc2n[nH]c(NCc3cc(C)c(O)c(C)c3)c2C(N)=O)cnc1N1CCOCC1 [Compound 12, 5-((4-hydroxy-3,5-dimethylbenzyl)amino)-3-((5-methyl-6-morpholinopyridin-3-yl)amino)-1H-pyrazole-4-carboxamide]",B (B represents 10<Kd(JAK2): Kd (RCK)<100),B (B represents 10<Kd (JAK3): Kd (RCK)<100)
> 1 µM,> 1 µM,> 1 µM,"Cc1cc(Nc2n[nH]c(NCc3cc(C)c(O)c(C)c3)c2C(N)=O)cnc1N1CCN(C(C)C)CC1 [Compound 13, 5-((4-hydroxy-3,5-dimethylbenzyl)amino)-3-((6-(4-isopropylpiperazin-1-yl)-5-methylpyridin-3-yl)amino)-1H-pyrazole-4-carboxamide]",B (B represents 10<Kd(JAK2): Kd (RCK)<100),B (B represents 10<Kd (JAK3): Kd (RCK)<100)
> 1 µM,> 1 µM,> 1 µM,"Cc1cc(Nc2n[nH]c(NCc3cc(C)c(O)c(C)c3)c2C(N)=O)cnc1N1CCN(C)CC1 [Compound 14, 5-((4-hydroxy-3,5-dimethylbenzyl)amino)-3-((5-methyl-6-(4-methylpiperazin-1-yl)pyridin-3-yl)amino)-1H-pyrazole-4-carboxamide]",C (C represents 1<Kd (JAK2): Kd (RCK)<10),B (B represents 10<Kd (JAK3): Kd (RCK)<100)
0.05 to 0.1 µM,> 1 µM,> 1 µM,"Cc1cc(CNc2[nH]nc(Nc3ccc(N4C[C@@H](C)O[C@@H](C)C4)c(Cl)c3)c2C(N)=O)cc(C)c1O [Compound 15, 3-((3-chloro-4-(2,6-dimethylmorpholino)phenyl)amino)-5-((4-hydroxy-3,5-dimethylbenzyl)amino)-1H-pyrazole-4-carboxamide]",B (B represents 10<Kd(JAK2): Kd (RCK)<100),B (B represents 10<Kd (JAK3): Kd (RCK)<100)
